# Reference: paper PMC7419507, “In vitro Cas9-assisted editing of modular polyketide synthase genes to produce desired natural product derivatives” (Nature Communications, 2020)
# Where “and” joins values, the source holds several entries; their conditions need not be identical. Equal values may be shown once.
# Experiments:
# Format in all cases: cell-based
# [1] = system: human ovarian adenocarcinoma SKOV-3 cells; test: Cytotoxicity assay (CellTiter-Glo, 72 h), SKOV-3; settings: raw replicate data
# Protocol: (§1) Jurkat cells were cultured in RPMI1640 medium supplemented with 10% foetal bovine serum, penicillin (50 U/ml), streptomycin (50 μg/ml), and Glutamax. SKOV-3 cells were cultured in DMEM medium supplemented with 10% fetal bovine serum, penicillin (50 U/ml), and streptomycin (50 μg/ml). MESO-1 cells were cultured in RPMI1640 medium supplemented with 10% fetal bovine serum, penicillin (50 U/ml), and streptomycin (50 μg/ml). All cell lines were seeded in a 384-well plate at a density of 1000 cells/well in 20 μl of media and incubated at 37 °C in a humidified incubator with 5% CO2. After 4 h, 2-fold dilution samples resolved in DMSO were added to the cell culture at the concentration of 0.5% (0.1 μl) and incubated for 72 h. Cell viabilities were measured using a CellTiter-Glo luminescent cell viability assay and EnVision multilabel plate reader.
# [2] = system: malignant pleural mesothelioma MESO-1 cells; test: Cytotoxicity assay (CellTiter-Glo, 72 h), MESO-1; settings: raw replicate data
# Protocol: as §1
# [3] = Cytotoxicity assay (CellTiter-Glo, 72 h), MESO-1; settings: human
# Protocol: as §1
smiles,measurement,setting,value
"CO[C@H]1C[C@@H]2CC[C@@H](C)[C@@](O)(O2)C(=O)C(=O)N2CCCC[C@H]2C(=O)O[C@H]([C@H](C)C[C@@H]2CC[C@@H](O)[C@H](OC)C2)CC(=O)[C@H](C)/C=C(\C)[C@@H](O)[C@@H](OC)C(=O)[C@H](C)C[C@H](C)/C=C/C=C/C=C/1C [Compound 1, rapamycin, reference compound]",SKOV3 viability (%),[1]; conc 9.53674e-5 uM,85.5% and 83.5%
same,SKOV3 viability (%),[1]; conc 0.000190735 uM,77.8%
same,SKOV3 viability (%),[1]; conc 0.00038147 uM,76.1% and 77.6%
same,SKOV3 viability (%),[1]; conc 0.000762939 uM,63.5% and 66.3%
same,SKOV3 viability (%),[1]; conc 0.00152588 uM,104.6% and 106.1%
same,SKOV3 viability (%),[1]; conc 0.00305176 uM,68.3% and 63.8%
same,SKOV3 viability (%),[1]; conc 0.00610352 uM,65.9%
same,SKOV3 viability (%),[1]; conc 0.012207 uM,65.2% and 58.2%
same,SKOV3 viability (%),[1]; conc 0.0244141 uM,61.9% and 60.6%
same,SKOV3 viability (%),[1]; conc 0.0488281 uM,65.4% and 58.1%
same,SKOV3 viability (%),[1]; conc 0.0976562 uM,60.9% and 62.0%
same,SKOV3 viability (%),[1]; conc 0.195312 uM,60.7% and 56.3%
same,SKOV3 viability (%),[1]; conc 0.390625 uM,59.9% and 61.0%
same,SKOV3 viability (%),[1]; conc 0.78125 uM,54.1% and 58.4%
same,SKOV3 viability (%),[1]; conc 1.5625 uM,63.0%
same,SKOV3 viability (%),[1]; conc 3.125 uM,54.7%
same,SKOV3 viability (%),[1]; conc 6.25 uM,63.2%
same,SKOV3 viability (%),[1]; conc 12.5 uM,56.9%
same,SKOV3 viability (%),[1]; conc 25 uM,55.5%
same,SKOV3 viability (%),[1]; conc 50 uM,16.3% and 24.9% and 9.3%
same,MESO1 viability (%),[2]; conc 9.53674e-5 uM,78.2% and 78.1%
same,MESO1 viability (%),[2]; conc 0.000190735 uM,77.7% and 77.2%
same,MESO1 viability (%),[2]; conc 0.00038147 uM,77.9% and 86.0%
same,MESO1 viability (%),[2]; conc 0.000762939 uM,70.2% and 70.0%
same,MESO1 viability (%),[2]; conc 0.00152588 uM,112.8% and 111.2%
same,MESO1 viability (%),[2]; conc 0.00305176 uM,76.5%
same,MESO1 viability (%),[2]; conc 0.00610352 uM,75.4% and 78.7%
same,MESO1 viability (%),[2]; conc 0.012207 uM,72.8% and 76.2%
same,MESO1 viability (%),[2]; conc 0.0244141 uM,77.3%
same,MESO1 viability (%),[2]; conc 0.0488281 uM,71.0% and 73.9%
same,MESO1 viability (%),[2]; conc 0.0976562 uM,74.5% and 75.3%
same,MESO1 viability (%),[2]; conc 0.195312 uM,73.7% and 71.3%
same,MESO1 viability (%),[2]; conc 0.390625 uM,76.1%
same,MESO1 viability (%),[2]; conc 0.78125 uM,74.4% and 74.1%
same,MESO1 viability (%),[2]; conc 1.5625 uM,76.3%
same,MESO1 viability (%),[2]; conc 3.125 uM,70.7% and 70.8%
same,MESO1 viability (%),[2]; conc 6.25 uM,70.6% and 74.9%
same,MESO1 viability (%),[2]; conc 12.5 uM,61.9% and 67.0%
same,MESO1 viability (%),[2]; conc 25 uM,64.2% and 64.1%
same,MESO1 viability (%),[2]; conc 50 uM,0.7% and 0.8%
same,viability at 72 h,"[3]; MESO-1 cells (malignant pleural mesothelioma), MESO-1 cells, 72 h, read-out: Plateau level of cell viability in the dose-response curve",~75%
same,"viability at 72 h, 9.53674e-05 uM","[3]; MESO-1 malignant pleural mesothelioma cells, conc 9.53674e-5 uM, raw replicate data, read-out: MESO1 viability (%)",79%
same,"viability at 72 h, 0.000190735 uM","[3]; MESO-1 malignant pleural mesothelioma cells, conc 0.000190735 uM, raw replicate data, read-out: MESO1 viability (%)",73.6%
same,"viability at 72 h, 0.00038147 uM","[3]; MESO-1 malignant pleural mesothelioma cells, conc 0.00038147 uM, raw replicate data, read-out: MESO1 viability (%)",83.4%
same,"viability at 72 h, 0.000762939 uM","[3]; MESO-1 malignant pleural mesothelioma cells, conc 0.000762939 uM, raw replicate data, read-out: MESO1 viability (%)",73.1%
same,"viability at 72 h, 0.00152588 uM","[3]; MESO-1 malignant pleural mesothelioma cells, conc 0.00152588 uM, raw replicate data, read-out: MESO1 viability (%)",116%
same,"viability at 72 h, 0.00305176 uM","[3]; MESO-1 malignant pleural mesothelioma cells, conc 0.00305176 uM, raw replicate data, read-out: MESO1 viability (%)",69.5%
same,"viability at 72 h, 0.00610352 uM","[3]; MESO-1 malignant pleural mesothelioma cells, conc 0.00610352 uM, raw replicate data, read-out: MESO1 viability (%)",78.3%
same,"viability at 72 h, 0.012207 uM","[3]; MESO-1 malignant pleural mesothelioma cells, conc 0.012207 uM, raw replicate data, read-out: MESO1 viability (%)",77.6%
same,"viability at 72 h, 0.0244141 uM","[3]; MESO-1 malignant pleural mesothelioma cells, conc 0.0244141 uM, raw replicate data, read-out: MESO1 viability (%)",75.2%
same,"viability at 72 h, 0.0488281 uM","[3]; MESO-1 malignant pleural mesothelioma cells, conc 0.0488281 uM, raw replicate data, read-out: MESO1 viability (%)",75%
same,"viability at 72 h, 0.0976562 uM","[3]; MESO-1 malignant pleural mesothelioma cells, conc 0.0976562 uM, raw replicate data, read-out: MESO1 viability (%)",77%
same,"viability at 72 h, 0.195312 uM","[3]; MESO-1 malignant pleural mesothelioma cells, conc 0.195312 uM, raw replicate data, read-out: MESO1 viability (%)",74.8%
same,"viability at 72 h, 0.390625 uM","[3]; MESO-1 malignant pleural mesothelioma cells, conc 0.390625 uM, raw replicate data, read-out: MESO1 viability (%)",75.6%
same,"viability at 72 h, 0.78125 uM","[3]; MESO-1 malignant pleural mesothelioma cells, conc 0.78125 uM, raw replicate data, read-out: MESO1 viability (%)",68.5%
same,"viability at 72 h, 1.5625 uM","[3]; MESO-1 malignant pleural mesothelioma cells, conc 1.5625 uM, raw replicate data, read-out: MESO1 viability (%)",76.4%
same,"viability at 72 h, 3.125 uM","[3]; MESO-1 malignant pleural mesothelioma cells, conc 3.125 uM, raw replicate data, read-out: MESO1 viability (%)",73.6%
same,"viability at 72 h, 6.25 uM","[3]; MESO-1 malignant pleural mesothelioma cells, conc 6.25 uM, raw replicate data, read-out: MESO1 viability (%)",74.3%
same,"viability at 72 h, 12.5 uM","[3]; MESO-1 malignant pleural mesothelioma cells, conc 12.5 uM, raw replicate data, read-out: MESO1 viability (%)",71.1%
same,"viability at 72 h, 25 uM","[3]; MESO-1 malignant pleural mesothelioma cells, conc 25 uM, raw replicate data, read-out: MESO1 viability (%)",63.9%
same,"viability at 72 h, 50 uM","[3]; MESO-1 malignant pleural mesothelioma cells, conc 50 uM, raw replicate data, read-out: MESO1 viability (%)",1.1%
